Common to all, as to assay type: cell membranes
In assay [1] the target is Glutamate receptor ionotropic, AMPA (Rattus norvegicus) (UniProt P19491+P19492+P19493+P19490). The assay can be described thus: Inhibition [3H]AMPA binding to ionotropic glutamate receptor AMPA in rat whole brain membranes in the presence of […] KSCN.
For assay [2], the target named is Glutamate receptor ionotropic, NMDA 1 (Rattus norvegicus) (UniProt P35439). Put plainly: (§1) In vitro inhibition of the specific binding of [3H]Gly to N-methyl-D-aspartate glutamate receptor 1 in rat whole brain membranes except cerebellum. The following applies: concentration not given here.
In assay [3] the target is Glutamate receptor ionotropic, AMPA (Rattus norvegicus, UniProt P19490+P19491+P19492+P19493). Put plainly: In vitro inhibition of the specific binding of [3H]AMPA to Ionotropic glutamate receptor AMPA in rat whole brain membranes in the presence of […] KSCN.
Assay [4] has as its target Glutamate receptor ionotropic, NMDA 1 (Rattus norvegicus, UniProt P35439). The description is as §1.

With `Oc1nc2ccc(Cl)nc2nc1O`, in assay [1], the inhibition stood at 29%.

In assay [2], `O=[N+]([O-])c1cc2nc(O)c(O)nc2nc1-n1ccnc1` came in with an inhibition of 0%. For the same compound, in assay [3], the Ki was found to be 140 nM.

For the compound `Oc1nc2cccnc2nc1O`, the inhibition in assay [1] was 22%.

`O=[N+]([O-])c1cnc2nc(O)c(O)nc2c1`: the Ki in assay [3] amounted to 1100 nM.

On to `Oc1ccc2nc(O)c(O)nc2n1`, for which the inhibition in assay [1] was found to be 37%.

Turning to `Oc1nc2ccc(N3CCOCC3)nc2nc1O`, the inhibition in assay [1] was 32%.

Take `CS(=O)(=O)c1ccc2nc(O)c(O)nc2n1`: the inhibition in assay [1] was 56%.

For the compound `O=c1[nH]c2cc(-n3ccnc3)c([N+](=O)[O-])cc2[nH]c1=O`, the inhibition in assay [2] turned out to be 16%.

On to `COc1nc2[nH]c(=O)c(=O)[nH]c2cc1[N+](=O)[O-]`, for which the inhibitory constant (Ki) was found to be 370 nM in assay [4] and 700 nM in assay [3].

Turning to `O=[N+]([O-])c1cc2nc(O)c(O)nc2nc1N1CCOCC1`, the inhibition in assay [2] is 14%. Besides, the inhibitory constant (Ki) in assay [3] was determined as 920 nM.

For the compound `CNc1ccc2nc(O)c(O)nc2n1`, the inhibition in assay [1] stood at 30%.

As for `Oc1nc2ccc(-n3ccnc3)nc2nc1O`, in assay [1], the inhibition worked out at 76%.

With `Cc1cnc2nc(O)c(O)nc2c1`, the inhibition in assay [1] was 74%.

`Oc1nc2ccncc2nc1O`: in assay [1], the inhibition was 32%.

With `Cc1ccc2nc(O)c(O)nc2n1`, in assay [1], the inhibition worked out at 31%.

Regarding `COc1ccc2nc(O)c(O)nc2n1`, the inhibition in assay [1] came to 41%.

`Oc1nc2cncnc2nc1O`: the inhibition in assay [1] was 62%.

`O=[N+]([O-])c1ccc2nc(O)c(O)nc2n1`: the inhibition in assay [1] came to 66%.

In the case of `O=[N+]([O-])c1cc2nc(O)c(O)nc2nc1[N+](=O)[O-]`, the Ki in assay [4] turned out to be 8000 nM; in assay [3], 860 nM.

Regarding `CSc1ccc2nc(O)c(O)nc2n1`, in assay [1], the inhibition is 55%.

What is called inhibition is the relative decrease from the control value, in per cent. For orientation: Ki means a measure of affinity in units of concentration, obtained from inhibition or displacement.

The values above are taken from ChEMBL document CHEMBL1129530, “Novel alpha-amino-3-hydroxy-5-methylisoxazole-4-propionate receptor antagonists: synthesis and structure-activity relationships of 6-(1H-imidazol-1-yl)-7-nitro-2,3(1H,4H)-pyrido[2,3-b]pyrazinedione and related compounds” (J Med Chem, 1996).
